{
  "source": "paper PMC10878246",
  "about": "“Crystal structure and biochemical activity of the macrodomain from rubella virus p150” (Journal of virology, 2024)",
  "target": "T1, RuV macrodomain (macrodomain from rubella virus p150) (Rubella virus, UniProt G3M8F4)",
  "T1 construct": "gene NSP; macrodomain, p150 residues 805-983 (p150 is cut from nonstructural polyprotein p200); pET24a, C-terminal His6 tag, no tag cleavage described; E. coli BL21(DE3)",
  "assay": "isothermal titration calorimetry",
  "format": "binding",
  "conditions": "20 mM HEPES pH 8, 0.15 M NaCl, 25 °C; 1:1 single-site; crystal structure by soaking with 2 mM ADP-ribose",
  "data": [
    {"smiles": "Nc1ncnc2c1ncn2[C@@H]1O[C@H](COP(=O)(O)OP(=O)(O)OC[C@H]2OC(O)[C@H](O)[C@@H]2O)[C@@H](O)[C@H]1O", "note": "(stereo partly shown) [ADP-ribose]", "values": [
      {"measurement": "Kd", "value": "58.1 ± 5.4", "unit": "µM"}
    ]}
  ]
}
